Experimental data taken from patent US11072601B2, “μ-opioid receptor agonist and preparation method therefor and use thereof in field of medicine” (SHANGHAI SYNERGY PHARMACEUTICAL SCIENCES CO., LTD., priority 2017, dated 2021).

Assays:
μ opioid receptor (MOR) = biological target: T1, μ opioid receptor (MOR) (Homo sapiens, UniProt P35372); assay: cell-based; conditions: HEK293 stably expressing μ opioid receptor, FLIPR calcium
T1 construct: host or cells: HEK293
Procedure: The purpose of the experiment was to test the agonistic effects of the compounds of the present invention on μ opioid receptor (MOR), κ opioid receptor (KOR) and δ opioid receptor (DOR), and to evaluate in vitro activity of the compounds according to the half-maximal effect concentration (EC50).
This test was performed using HEK293 cell lines (the stably expressed cell lines were provided by WuXi AppTec) which stably expressed μ opioid receptor, δ opioid receptor or κ opioid receptor respectively. […] The cells were centrifuged at 1000 rpm for 5 minutes at room temperature to precipitate. The supernatant was sucked out, be careful not to suck out cells. The precipitate was flicked into the loose cells and resuspend in 45 ml DMEM medium. The Vi-CELL XR automatic cell viability detector (BECKMAN COULTER) was used to count the cells, and the cell concentration was adjusted to 10×10^5 cells/ml based on the counting results.
Preparation of probenecid mother solution: 1 ml of FLIPR test solution was added to 77 mg probenecid to prepare a 250 mM solution. The solution was freshly prepared just before use.
The solution was freshly prepared just before use.
The cell plate prepared above was removed from the incubator and 20 ul 2× Fluo-4 Direct™ buffer was added thereto. The final volume in the cell plate was […]. The plate was incubated at 37° C., under 5% CO2 for 50 minutes, and incubated at room temperature for 10 minutes, then was placed into the FLIPR instrument (MD), and the compound plate and pipette box was placed into. The protocol was run on the […] platform, 10 μl of positive drug or the test compound was transfered to the cell plate from the compound plate, and the fluorescent signal was read.
The signal value generated by each well was calculated, and the calculation formula was that: the activity %=(signal value of the test compound−signal value of the solvent)/(signal value of the positive drug−signal value of the solvent).

[1] = biological target: T2, β-arrestin signaling pathway of MOR (Homo sapiens, UniProt P35372); assay: cell-based; conditions: PathHunter HEK293 cells, relative to endorphin MAX control
T2 construct: host or cells: HEK293 (PathHunter cell line)
T2 sequence (P35372 whole entry): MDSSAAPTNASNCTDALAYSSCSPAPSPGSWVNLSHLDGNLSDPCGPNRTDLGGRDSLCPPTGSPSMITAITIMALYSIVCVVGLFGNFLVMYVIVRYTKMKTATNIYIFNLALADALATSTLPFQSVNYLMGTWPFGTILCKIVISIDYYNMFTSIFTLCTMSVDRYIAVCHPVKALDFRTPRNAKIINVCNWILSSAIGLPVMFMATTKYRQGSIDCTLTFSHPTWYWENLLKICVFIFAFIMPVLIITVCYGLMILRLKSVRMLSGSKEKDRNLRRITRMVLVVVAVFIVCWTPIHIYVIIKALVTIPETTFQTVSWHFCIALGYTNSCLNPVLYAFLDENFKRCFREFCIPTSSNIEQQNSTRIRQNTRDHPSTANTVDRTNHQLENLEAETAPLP

[2] = biological target: T3, cAMP pathway of MOR receptor (Homo sapiens, UniProt P35372); assay: cell-based; conditions: cAMP Hunter HEK293 cells, forskolin-induced cAMP; read-out: EC50 of cAMP levels affected by agonistic effect on MOR
T3 construct: host or cells: HEK293 (cAMP Hunter cell line)
T3 sequence (P35372 whole entry): as above
Source text: The purpose of this experiment was to test the agonistic effect of the compounds of the invention on the cAMP pathway of MOR and to evaluate the in vitro activity of the compounds according to EC50.
In this experiment, HitHunter cAMP Assay EFC technology of DiscoverX was used to measure the cAMP level in cells and monitor the functional status of G-protein coupled receptors (GPCRs).
The amount of signal produced was directly proportional to the amount of cAMP in the cell.
The MOR receptor was bound to the inhibitory Gαi protein, so forskolin (for inducing cAMP signal) was used to induce cAMP expression in the experiment, and the inhibitory effect of the compounds on the above induction was measured.
The cAMP Hunter cell line (HEK293, DiscoverX) was removed from the freezer and expanded according to the Cell Standard Operating Procedure (SOP), 20 μL was collected and inoculated into a 384-well microplate and incubated at 37° C. overnight.
The HitHunter cAMP Assay test kit (DiscoverX, 90-0075sm) was used, the kit contained cAMP buffer, cAMP detection solution, and cAMP working solution A.
The formula was used to calculate the percentage of signal activity per well=100%×(1−(average RLU of the test samples−average RLU of the MAX controls)/(average RLU of the solvent controls−average RLU of the MAX controls)). wherein, the MAX control referred to the fluorescence signal value of the endorphin solution, and the solvent control referred to the fluorescence signal value of DMSO. The DiscoveRx CBIS data analysis workstation (ChemInnovation, CA) was used to perform statistical analysis of the percentage of signal activity and the concentration of the compounds by the agonist formula (comes with the software, universal) to calculate the EC50 value.

SD rats = assay: Respiratory depression in rats, arterial blood gas PCO2; assay type: in vivo
Source text: 8-week-old male SD rats weighing 200 g-300 g were used as experimental animals to determine the effect of the compound of Example H05, the compound of Example H08, the compound of Example H10, the compound of Example H16, the compound of Example H17, the compound of Example H18, the compound of Example H21, and the compound of Example H24 on the partial pressure of blood in rats after intravenous administration. The effects of the compounds of the invention on respiratory depression were investigated.
After the rats were acclimatized to the experimental environment for 3 days, each animal was anesthetized with sodium pentobarbital (50-60 mg/kg, ip), and then the right common carotid artery was isolated and the unilateral carotid artery tube-bury surgery was performed (PE60, ID*OD*length as 0.76 mm*1.22 mm*20 cm, buried into the artery 1 cm deep, and the tube was filled with heparin sodium tube sealing solution).

T1 sequence (P35372 whole entry, species assumed): as the sequence (P35372 whole entry) above

SMILES | EC50 (μ opioid receptor (MOR)) [nM] | Emax [1] [%] | EC50 [2] [nM] | PCO2, 5 min before administration (SD rats; arterial blood, before administration) [mmHg] | PCO2, 5 min after administration (SD rats; intravenous single dose 0.3 mg/kg (morphine 24 mg/kg), 5 min) [mmHg] | PCO2, 30 min after administration (SD rats; intravenous single dose 0.3 mg/kg (morphine 24 mg/kg), 30 min) [mmHg] | PCO2, 60 min after administration (SD rats; intravenous single dose 0.3 mg/kg (morphine 24 mg/kg), 60 min) [mmHg] | PCO2, 120 min after administration (SD rats; intravenous single dose 0.3 mg/kg (morphine 24 mg/kg), 120 min) [mmHg]
CNc1ccccc1CNCCC1(c2ccccn2)CCOC2(CCCC2)C1 (centres unmarked) [Example H03] | 6.47 | 3.19 | 4.36 |  |  |  |  | 
FC(F)(F)Oc1ccc(CNCCC2(c3ccccn3)CCOC3(CCCC3)C2)cc1 (centres unmarked) [Example H06, (4-trifluoromethoxybenzyl)-[2-(9-(pyridin-2-yl)-6-oxaspiro[4.5]decan-9-yl)ethyl]amine] | 6.1 | 0.66 | 11.8 |  |  |  |  | 
Fc1cnc(C2(CCNCc3ccccc3OC(F)(F)F)CCOC3(CCCC3)C2)c(Cl)c1 (centres unmarked) [Example H09, (2-trifluoromethoxybenzyl)-[2-(9-(3-chloro-5-fluoropyridin-2-yl)-6-oxaspiro[4.5]decan-9-yl)ethyl]amine] | 4.12 | 3.28 | 8.45 |  |  |  |  | 
FC(F)(F)Oc1cc(Br)ccc1CNCCC1(c2ccccn2)CCOC2(CCCC2)C1 (centres unmarked) [Example H11, (4-bromo-2-trifluoromethoxybenzyl)-[2-(9-(pyridin-2-yl)-6-oxaspiro[4.5]decan-9-yl)ethyl]amine] | 2.08 | 2.28 | 7.31 |  |  |  |  | 
Cc1ccc(CNCCC2(c3ccccn3)CCOC3(CCCC3)C2)c(OC(F)(F)F)c1 (centres unmarked) [Example H12, (4-methyl-2-trifluoromethoxybenzyl)-[2-(9-(pyridin-2-yl)-6-oxaspiro[4.5]decan-9-yl)ethyl]amine] | 2.04 | 32.2 | 5.51 |  |  |  |  | 
N#Cc1cccc(CNCCC2(c3ccccn3)CCOC3(CCCC3)C2)c1OC(F)(F)F (centres unmarked) [Example H13] | 5.16 | 3.41 | 9.43 |  |  |  |  | 
FC(F)(F)c1ccsc1CNCCC1(c2ccccn2)CCOC2(CCCC2)C1 (centres unmarked) [Example H14, ((3-trifluoromethylthiophen-2-yl)methyl)-[2-(9-(pyridin-2-yl)-6-oxaspiro[4.5]decan-9-yl)ethyl]a mine] | 2.1 | 1.82 | 15.9 |  |  |  |  | 
Oc1ccc(CNCCC2(c3ccccn3)CCOC3(CCCC3)C2)c(OC(F)(F)F)c1 (centres unmarked) [Example H15, 4-{[2-(9-(pyridin-2-yl)-6-oxaspiro[4.5]decan-9-yl)ethylamine]methyl}-3-trifluoromethoxyphenol] | 3.32 | 15.8 | 4.28 |  |  |  |  | 
FC(F)(F)c1ccc2c(c1)CN(CCC1(c3ccccn3)CCOC3(CCCC3)C1)CC2 (centres unmarked) [Example H19, 2-[2-(9-(pyridin-2-yl)-6-oxaspiro[4.5]decan-9-yl)ethyl]-7-trifluoromethyl-1,2,3,4-tetrahydroisoquinoline] | 5.43 | 1.12 | 18.6 |  |  |  |  | 
COc1ccc2c(c1)CN(CCC1(c3ccccn3)CCOC3(CCCC3)C1)CC2 (centres unmarked) [Example H20, 7-methoxy-2-[2-(9-pyridin-2-yl-6-oxa-spiro[4.5]decan-9-yl)-ethyl]-1,2,3,4-tetrahydroisoquinoline] | 3.53 | 2.12 | 19.9 |  |  |  |  | 
FC(F)(F)Oc1ccccc1CNCCC1(c2ccccn2)CCOC2(CCCC2)C1 (centres unmarked) [Example H22, (2-trifluoromethoxybenzyl)-[2-(9-pyridin-2-yl-6-oxa-spiro[4.5]decan-9-yl) -ethyl]-amine] | 1.04 | 2.31 | 11.9 |  |  |  |  | 
c1ccc(C2(CCN3CCc4ccsc4C3)CCOC3(CCCC3)C2)nc1 (centres unmarked) [Example H23, 6-[2-(9-pyridin-2-yl-6-oxa-spiro[4.5]decan-9-yl)-ethyl]-4,5,6,7-tetrahydro-thieno[2,3-c]pyridine] | 4.08 | 2.2 | 9.73 |  |  |  |  | 
COc1[nH]ncc1CNCCC1(c2ccccn2)CCOC2(CCCC2)C1 (centres unmarked) [Example H25, [(5-methoxy-1H-pyrazol-4-yl)methyl]-[2-(9-(pyridin-2-yl)-6-oxaspiro[4.5]decan-9-yl)ethyl] amine] | 2.02 | 3.2 | 12.8 |  |  |  |  | 
COc1ccsc1CNCC(C)C1(c2ccccn2)CCOC2(CCCC2)C1 (centres unmarked) [Example H26] | 1.76 | 22.6 | 6.95 |  |  |  |  | 
COc1ccsc1CNC(C)CC1(c2ccccn2)CCOC2(CCCC2)C1 (centres unmarked) [Example H27] | 4.01 | 3.32 | 12 |  |  |  |  | 
FC(F)(F)Oc1c(Br)cccc1CNCCC1(c2ccccn2)CCOC2(CCCC2)C1 (centres unmarked) [Example H28, (3-bromo-2-trifluoromethoxybenzyl)-[2-(9-pyridin-2-yl-6-oxa-spiro[4.5]decan-9-yl)-ethyl]-amine] | 6.35 | 6.26 | 14.2 |  |  |  |  | 
Fc1ccc(C2(CCNCc3ccccc3OC(F)F)CCOC3(CCCC3)C2)nc1 (centres unmarked) [Example H29, {2-[9-(5-fluoro-pyridin-2-yl) -6-oxa-spiro[4.5]decan-9-yl]-ethyl}-(2-(difluoromethoxy)-benzyl) -amine] | 6.09 | 7.07 | 10.4 |  |  |  |  | 
Fc1ccc(C2(CCNCc3sccc3Cl)CCOC3(CCCC3)C2)nc1 (centres unmarked) [Example H30, {2-[9-(5-fluoro-pyridin-2-yl)-6-oxa-spiro[4.5]decan-9-yl]-ethyl}-((3-chlorothiophen-2-yl)-methyl)-amine] | 5.62 | 2.91 | 17.4 |  |  |  |  | 
Cc1ccc(CNCCC2(c3ccc(F)cn3)CCOC3(CCCC3)C2)cc1C (centres unmarked) [Example H31, {2-[9-(5-fluoro-pyridin-2-yl)-6-oxa-spiro[4.5]decan-9-yl]-ethyl}-(3,4-dimethyl-benzyl)-amine] | 3.83 | 5.06 | 8.73 |  |  |  |  | 
Cc1c(Cl)cccc1CNCCC1(c2ccc(F)cn2)CCOC2(CCCC2)C1 (centres unmarked) [Example H32, {2-[9-(5-fluoro-pyridin-2-yl)-6-oxa-spiro[4.5]decan-9-yl]-ethyl}-(3-chloro-2-methyl-benzyl)-amine] | 7.35 | 11.7 | 13.5 |  |  |  |  | 
Fc1ccc(C2(CCNCc3sccc3OC(F)F)CCOC3(CCCC3)C2)nc1 (centres unmarked) [Example H33, {2-[9-(5-fluoro-pyridin-2-yl)-6-oxa-spiro[4.5]decan-9-yl]-ethyl}-((3-difluoromethoxythiophen-2-yl) -methyl)-amine] | 5.25 | 8.69 | 12 |  |  |  |  | 
CN1CC[C@]23c4c5ccc(O)c4O[C@H]2[C@@H](O)C=C[C@H]3[C@H]1C5 [morphine, reference compound] |  |  |  | 36.41 ± 0.98 | 37.26 ± 1.18 | 40.94 ± 2.78 | 58.63 ± 3.53 | 56.9 ± 4.05
